Data from patent US10945971B2, “Sphingosine kinase type 1 inhibitors and uses thereof” (Enzo Therapeutics, Inc., priority 2008, dated 2021).

Experiments:
U373 cells = assay: Modulation of SK1-I lethality by signaling inhibitors, U373 cells; assay type: cell-based, human; conditions: U373, combined with SK1-I
Experimental: (§1) Cells were plated at 10,000 cells/well in 48-well plates and allowed to attach for 24 h. Cell proliferation was measured at the indicated times with WST-1 and absorbance was measured in a plate reader at 450 nm with background subtraction at 630 nm. Cell death was detected by trypan blue exclusion assays in which the percent of blue dye incorporating cells were determined using a light microscope and a hemacytometer as described (Yacoub et al. Mol Cancer Ther 7:314-329, 2008). Apoptotic cell death was measured by staining cell nuclei with the Hoechst dye bisbenzimide and apoptotic cells were identified by condensed, fragmented nuclear regions as described previously (Sankala et al. Cancer Res 67:10466-10474, 2007). A minimum of 300 cells was scored.

LN229 cells = assay type: cell-based; conditions: LN229, combined with SK1-I
Experimental: as §1

SMILES	effect on SK1-I lethality (U373 cells)	effect on SK1-I lethality (LN229 cells)
Oc1ccc(-c2nc(-c3ccncc3)c(-c3ccc(F)cc3)[nH]2)cc1 [SB202190]	enhanced	enhanced
N#CC(=C(/N)Sc1ccccc1N)/C(C#N)=C(\N)Sc1ccccc1N [U0126]	enhanced	enhanced
